Experiments:
Na^+ /H^+ exchanger = biological target: T1, Na^+ /H^+ exchanger (Oryctolagus cuniculus, UniProt P23791); experiment: Sodium-Proton exchange inhibition in rabbit erythrocytes; type: cell-based, rabbit (Albino rabbits of New Zealand strain); conditions: concentration necessary to reduce the erythrocyte sodium content to 50%; erythrocytes of rabbits fed 2% cholesterol diet six weeks; 37° C., 1 hour, hyperosmolar sucrose buffer with ouabain
T1 construct: increase the exchanger activity in the rabbit erythrocytes; endogenous in cells; host or cells: erythrocytes in blood of cholesterol-fed New Zealand albino rabbits
T1 sequence (P23791 whole entry): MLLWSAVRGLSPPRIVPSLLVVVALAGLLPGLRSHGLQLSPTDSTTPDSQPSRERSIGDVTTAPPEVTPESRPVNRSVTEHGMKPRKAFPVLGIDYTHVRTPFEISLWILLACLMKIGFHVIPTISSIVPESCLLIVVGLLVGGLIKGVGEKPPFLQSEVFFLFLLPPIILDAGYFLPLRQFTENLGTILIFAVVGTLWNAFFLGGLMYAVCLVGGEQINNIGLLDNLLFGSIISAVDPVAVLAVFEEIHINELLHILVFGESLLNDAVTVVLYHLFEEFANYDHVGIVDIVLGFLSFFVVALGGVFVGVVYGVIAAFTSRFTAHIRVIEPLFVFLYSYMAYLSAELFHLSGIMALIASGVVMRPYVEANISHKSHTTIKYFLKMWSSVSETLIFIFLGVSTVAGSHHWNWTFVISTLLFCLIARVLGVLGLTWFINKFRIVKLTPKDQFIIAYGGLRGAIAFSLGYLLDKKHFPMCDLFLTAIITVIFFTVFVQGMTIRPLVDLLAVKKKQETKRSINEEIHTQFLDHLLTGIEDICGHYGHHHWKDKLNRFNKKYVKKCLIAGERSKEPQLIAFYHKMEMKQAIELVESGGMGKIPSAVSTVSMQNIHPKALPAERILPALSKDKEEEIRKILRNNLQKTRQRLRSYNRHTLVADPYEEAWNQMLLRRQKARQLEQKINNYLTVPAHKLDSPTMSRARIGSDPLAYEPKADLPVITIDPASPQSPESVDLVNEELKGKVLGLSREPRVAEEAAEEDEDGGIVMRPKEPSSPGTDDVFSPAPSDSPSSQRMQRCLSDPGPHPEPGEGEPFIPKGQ
Source text: Sodium -Proton exchange inhibition in rabbit erythrocytes:
Albino rabbits of New Zealand strain were fed with 2% cholesterol diet for six weeks prior to collecting blood for the determination of Na^+ /H^+ exchanger activity in the erythrocytes. Hypercholesteremia has been reported to increase the exchanger activity in the rabbit erythrocytes (Scholz et al, 1990; Arteriosklerose-Neue Aspekte aus Zellbiologie und Molekulargenetik, Epidemiologie und Klinik; Assmann, G. et al, Eds, Braunschweig, Wiesbaden, Vieweg, 296-302 ). Blood samples were collected from the ear vein and hematocrit was determined. About […] of blood was incubated at 37° C. for 1 hour with hyperosmolar sucrose buffer containing 0.1 mmoles Ouabain in the presence and absence of test sample. After the incubation period, the reaction was stopped by addition of 5 ml of ice cold MgCl2 solution containing 0.1 mmole Ouabain. The erythrocytes were washed three times with 5 ml quantities of MgCl2 solution. They were hemolyzed by the addition of 4 ml of distilled water and the sodium content of the hemolyzate was determined by flame-photometry. The activity of the test compound was determined by its ability to reduce the sodium content of the erythrocyte and was expressed as IC50 which is the concentration necessary to reduce the erythrocyte sodium content to 50%.

rat hearts = conditions: isolated rat hearts, cited from earlier work
[1] = Circulation 79, 1257-1263 (1989); cited from earlier work

Row | SMILES | IC50 (Na^+ /H^+ exchanger) [nM] | also measured
1 | Cc1cccc2c1CCC2=CC(=O)N=C(N)N [Compound No. 4, 4-methyl-1-indanylidineacetyl-guanidine-methanesulfonic acid] | 700 | 
2 | N=C(N)NC(=O)c1nc(Cl)c(N)nc1N [amiloride] |  | suppression of artificially induced ventricular fibrillation (rat hearts; Eur. Heart J. 9 {supplement 1}: 167 (1988)): suppress an artificially induced ventricular fibrillation completely; antiarrhythmic effect [1]: only slight
3 | COc1ccc2c(c1)C(=CC(=O)N=C(N)N)CC2 [compound 6] | 660 | 
4 | Cc1ccc2c(c1)CCC2=CC(=O)N=C(N)N [compound 7] | 450 | 
5 | CCN(c1nc(N)c(C(=O)N=C(N)N)nc1Cl)C(C)C [ethylisopropylamiloride] |  | potency relative to amiloride against artificially induced ventricular fibrillation (rat hearts): even more potent than amiloride

Reference: US5900436A, “Substituted indanylidineacetylguanidines, processes for their preparation, their use as medicaments or diagnostics and medicaments containing them” (priority 1996, dated 1999)
